Results as given in US9247741B2, “Use of macrocyclic picolinamides as fungicides” (DOW AGROSCIENCES LLC, priority 2013, dated 2016).
Read-outs that look alike come from different tables or passages of the source.

Tests used:
Puccinia triticina = test: Wheat brown rust (PUCCRT) disease control on wheat seedlings; type: in vivo; conditions: for pest or weed control at 100 ppm: 100 ppm (high volume); for pest or weed control at 121.5 g/ha: 121.5 g/H (low volume track spray)
Method: Technical grades of materials were dissolved in acetone, which were then mixed with nine volumes of water containing 110 ppm Triton X-100. The fungicide solutions were applied onto wheat seedlings using an automated booth sprayer to run-off. All sprayed plants were allowed to air dry prior to further handling. All fungicides were evaluated using the aforementioned method for their activity vs. all target diseases. Wheat leaf blotch and brown rust activity were also evaluated using track spray applications, in which case the fungicides were formulated as EC formulations, containing 0.1% Trycol 5941 in the spray solutions. Wheat plants (variety Yuma) were grown from seed in a greenhouse in 50% mineral soil/50% soil-less Metro mix until the first leaf was fully emerged, with 7-10 seedlings per pot. These plants were inoculated with an aqueous spore suspension of Septoria tritici either prior to or after fungicide treatments. After inoculation the plants were kept in 100% relative humidity (one day in a dark dew chamber followed by two to three days in a lighted dew chamber at 20° C.) to permit spores to germinate and infect the leaf. The plants were then transferred to a greenhouse set at 20° C. for disease to develop. When disease symptoms were fully expressed on the l^st leaves of untreated plants, infection levels were assessed on a scale of 0 to 100 percent disease severity. Percent disease control was calculated using the ratio of disease severity on treated plants relative to untreated plants. Evaluation of Fungicidal Activity: Wheat Brown Rust (Puccinia triticina; Synonym: Puccinia recondite f sp. tritici; Bayer code PUCCRT) Wheat plants (variety Yuma) were grown from seed in a greenhouse in 50% mineral soil/50% soil-less Metro mix until the first leaf was fully emerged, with 7-10 seedlings per pot. These plants were inoculated with an aqueous spore suspension of Puccinia triticina either prior to or after fungicide treatments. After inoculation the plants were kept in a dark dew room at 22° C. with 100% relative humidity overnight to permit spores to germinate and infect the leaf. The plants were then transferred to a greenhouse set at 24° C. for disease to develop. Fungicide formulation, application and disease assessment followed the procedures as described in the Example A.

[1] = tested on: Mycosphaerella graminicola; Anamorph: Septoria tritici; test: Leaf blotch of wheat (SEPTTR) disease control on wheat seedlings; type: in vivo; conditions: Zymoseptoria tritici; for pest or weed control at 121.5 g/ha: 121.5 g/H (low volume track spray)
Method: Evaluation of Fungicidal Activity: Leaf Blotch of Wheat (Mycosphaerella graminicola; Anamorph: Septoria tritici; Bayer Code […]) Technical grades of materials were dissolved in acetone, which were then mixed with nine volumes of water containing 110 ppm Triton X-100. The fungicide solutions were applied onto wheat seedlings using an automated booth sprayer to run-off. All sprayed plants were allowed to air dry prior to further handling. All fungicides were evaluated using the aforementioned method for their activity vs. all target diseases. Wheat leaf blotch and brown rust activity were also evaluated using track spray applications, in which case the fungicides were formulated as EC formulations, containing 0.1% Trycol 5941 in the spray solutions. Wheat plants (variety Yuma) were grown from seed in a greenhouse in 50% mineral soil/50% soil-less Metro mix until the first leaf was fully emerged, with 7-10 seedlings per pot. These plants were inoculated with an aqueous spore suspension of Septoria tritici either prior to or after fungicide treatments. After inoculation the plants were kept in 100% relative humidity (one day in a dark dew chamber followed by two to three days in a lighted dew chamber at 20° C.) to permit spores to germinate and infect the leaf. The plants were then transferred to a greenhouse set at 20° C. for disease to develop. When disease symptoms were fully expressed on the l^st leaves of untreated plants, infection levels were assessed on a scale of 0 to 100 percent disease severity. Percent disease control was calculated using the ratio of disease severity on treated plants relative to untreated plants.

[2] = 24 h, 1 Day Protectant, read-out: PUCCRT 1DP disease control rating
[3] = 72 h, 3 Day Curative, read-out: PUCCRT 3DC disease control rating
[4] = 24 h, 1 Day Protectant, wheat, read-out: SEPTTR 1DP disease control rating
[5] = 72 h, 3 Day Curative, wheat, read-out: SEPTTR 3DC disease control rating
[6] = 24 h, 1 Day Protectant, 100 ppm (high volume), wheat, read-out: SEPTTR 1DP disease control rating
[7] = 72 h, 3 Day Curative, 100 ppm (high volume), wheat, read-out: SEPTTR 3DC disease control rating

Structure (SMILES) | melting point | pest or weed control at 100 ppm (Puccinia triticina; [2]) | pest or weed control at 100 ppm (Puccinia triticina; [3]) | pest or weed control at 100 ppm [1, 6] | pest or weed control at 100 ppm [1, 7] | other results
CCCO[C@H]1CCC[C@H](NC(=O)c2nccc(OC)c2O)C(=O)O[C@@H](C)[C@@H]1CCC(C)C [Compound 31, 3-hydroxy-N-((3S,7S,8S,9S)-8-isopentyl-9-methyl-2-oxo-7-propoxyoxonan-3-yl)-4-methoxypicolinamide] | 45 to 49 °C | > 70% | < 70% | – | – | pest or weed control at 100 ppm ([1]; 24 h, read-out: SEPTTR 1DP disease control rating): < 70%; pest or weed control at 100 ppm ([1]; 72 h, read-out: SEPTTR 3DC disease control rating): < 70%
CCCC[C@H]1[C@H](C)OC(=O)[C@@H](N)CCC[C@@H]1OCCCC(F)(F)F.Cl | 196 to 198 °C | – | – | – | – | –
CCCC[C@H]1[C@H](C)OC(=O)[C@@H](N)CCC[C@@H]1OCC1CC1.Cl | 223 to 224 °C | – | – | – | – | –
CCCC[C@H]1[C@H](C)OC(=O)[C@@H](NC(=O)c2nccc(OC)c2O)CCC[C@@H]1OCC1CC1 [Compound 32] | – | > 70% | > 70% | > 70% | > 70% | –
COc1ccnc(C(=O)N[C@H]2CCC[C@H](Oc3ccccc3)[C@@H](CCC(C)C)[C@H](C)OC2=O)c1O [Compound 8] | 55 to 60 °C | > 70% | > 70% | > 70% | > 70% | –
COc1ccnc(C(=O)N[C@H]2CCC[C@H](OCC3CC3)[C@@H](Cc3ccccc3)[C@H](C)OC2=O)c1O [Compound 67] | – | > 70% | > 70% | > 70% | > 70% | –
CCOCC(=O)OCOc1c(OC)ccnc1C(=O)N[C@H]1CCC[C@H](Oc2ccc(C)cc2)[C@@H](Cc2ccc(F)cc2)[C@H](C)OC1=O [Compound 35] | – | – | – | – | – | pest or weed control at 121.5 g/ha (Puccinia triticina; [2]): > 70%; pest or weed control at 121.5 g/ha (Puccinia triticina; [3]): < 70%; pest or weed control at 121.5 g/ha [1, 4]: < 70%; pest or weed control at 121.5 g/ha [1, 5]: < 70%

More lines, main results first:

melting point | Structure (SMILES) | pest or weed control at 100 ppm (Puccinia triticina; [2]) | pest or weed control at 100 ppm (Puccinia triticina; [3]) | pest or weed control at 100 ppm [1, 6] | pest or weed control at 100 ppm [1, 7] | other results
58 to 62 °C | COc1ccnc(C(=O)N[C@H]2CCC[C@H](OCc3ccccc3)[C@@H](CCC(C)C)[C@H](C)OC2=O)c1OC(C)=O [Compound 17] | – | – | – | – | pest or weed control at 121.5 g/ha (Puccinia triticina; [2]): > 70%; pest or weed control at 121.5 g/ha (Puccinia triticina; [3]): > 70%; pest or weed control at 121.5 g/ha [1, 4]: > 70%; pest or weed control at 121.5 g/ha [1, 5]: > 70%
68 to 71 °C | COc1ccnc(C(=O)N[C@H]2CCC[C@H](Oc3ccc(C)cc3)[C@@H](Cc3ccccc3)[C@H](C)OC2=O)c1O [Compound 60] | > 70% | > 70% | > 70% | > 70% | –
59 to 64 °C | CCCO[C@H]1CCC[C@H](NC(=O)c2nccc(OC)c2O)C(=O)O[C@@H](C)[C@@H]1Cc1ccccc1 [Compound 49] | > 70% | > 70% | > 70% | > 70% | –
97 to 100 °C | CC(C)CC[C@H]1[C@H](C)OC(=O)[C@@H](NC(=O)OC(C)(C)C)CCC[C@@H]1OCc1ccccc1 [Compound 51] | – | – | – | – | –
